Measurements: patent US20040043083A1, “Anticancer composition comprising sesquiterpenes isolated from resina ferulae” (priority 2000, published 2004)
Values after ≈ are worked out from the molar mass of the structure shown.

What was measured:
Format in all cases: cell-based
[1] = tested on: A549 (human lung cancer cell line); assay: Inhibition of human cancer cell line proliferation (SRB method), A549; conditions: A549 cells, 48 hours
Experimental: (§1) A549 (human lung cancer cell line), SK-OV-3 (human ovary cancer cell line), SK-MEL-2 ([…] melanoma cancer cell line), XF498 (Human CNS cancer cell line) and HCT-15 (human colic cancer cell line) were obtained from NCI of U.S. A. and subjected to subculture. The inhibition of the cancer cell line proliferation was determined by the SRB (sulforhodamine B) method in accordance with the procedure described by Skehan, P. et al. (J. Nat'l. Canc. Inst., 82, p1107, 1990) as follows.
(§2) 1) Each of the subcultured cancer cell lines was collected from the surface of the culture vessel, treated with a trypsin-CDTA solution, diluted, and added to each wall of a 96-well plat bottom microplate (Falcon Co.) in an amount of 5×10^3 (A549, HCT-15), 1×10^4 (SK-MEL-2, XF498) or 2×10^4 (SK-OV-3) cells/well, followed by incubation in a CO2 incubator to anchor the cells to the bottom surface. Then the culture medium was removed from the plate with suction, a solution containing a predetermined amount of a test sample (test solution) dissolved in culture medium was added to each well; and the mixture was futher cultured for 48 hours.
(§3) 2) Thereafter, the culture medium was removed from the plate with suction, and […] of 10% TCA (trichloro acetic acid) was added to each well. The plate was allowed to stand at room temperature for one hour to fix the cells, and was washed several times with distilled water to completely remove excess TCA and then dried.
(§4) 3) Each well was treated with 100 μl of an SRB staining solution (0.4% suforhodamine in 1% acetic acid) for 30 minutes, washed several times with 1% acetic acid to remove the remaining staining solution, and dried at room temperature.
(§5) 4) After adding 100 μl of 10 mM Trisma base solution (unbuffered) to each well, the plate was shaken with a titer plate shaker for 10 minutes to elute the staining solution from the cells, and the absorbance thereof at 520 nm was determined with a microplate reader.
(§6) 5) The degree of cancer cell proliferation (% cell growth, i.e., reverse of anticancer activity) of the cell line treated with the test solution was calculated by the following numerical formula wherein C is the number of cells in a control group treated with a culture medium instead of the test solution; Tz, the number of cells at time zero; and T, the number of cells treated with the test solution calculated based on measurement. Numerical formula 1 was used when Tz>T, numerical formula 2, when Tz<T.
(§7) Numerical formula 1=[(T−Tz)/(C−Tz)]×100
(§8) Numerical formula 2=[(T−Tz)/Tz]×100
(§9) 6) The amount of the samples needed for achieving 50% inhibition of the inhibiting cancer cell proliferation (ED50) was calculated from the observed degree of cell proliferation at various concentrations of the sample using the data regression of LOTUS program.

[2] = tested on: SK-MEL-2 (human melanoma cancer cell line); assay: Inhibition of human cancer cell line proliferation (SRB method), SK-MEL-2; conditions: SK-MEL-2 cells, 48 hours
Experimental: as §1, §2, §3, §4, §5, §6, §7, §8, §9

[3] = tested on: SK-OV-3 (human ovary cancer cell line); assay: Inhibition of human cancer cell line proliferation (SRB method), SK-OV-3; conditions: SK-OV-3 cells, 48 hours
Experimental: as §1, §2, §3, §4, §5, §6, §7, §8, §9

[4] = tested on: HCT-15 (human colic cancer cell line); assay: Inhibition of human cancer cell line proliferation (SRB method), HCT-15; conditions: HCT-15 cells, 48 hours
Experimental: as §1, §2, §3, §4, §5, §6, §7, §8, §9

[5] = tested on: XF498 (human CNS cancer cell line); assay: Inhibition of human cancer cell line proliferation (SRB method), XF498; conditions: XF498 cells, 48 hours
Experimental: as §1, §2, §3, §4, §5, §6, §7, §8, §9

Row | SMILES | ED50 A549 [1] | ED50 SK-MEL-2 [2] | ED50 SK-OV-3 [3] | ED50 HCT-15 [4] | ED50 XF498 [5]
1 | N.N.[Cl][Pt][Cl] [Cisplastine, reference compound] | 1.8 µg/mL | 1.2 µg/mL | 1.5 µg/mL | 3.2 µg/mL | 1.4 µg/mL
2 | CC(C)=C1CCC(C)C(C)(COc2ccc3ccc(=O)oc3c2)C1CCC(=O)O (stereo not drawn) [Compound 1, galbanic acid] | 8.9 µg/mL (≈ 22.3 µM) | 12.3 µg/mL (≈ 30.9 µM) | 14.5 µg/mL (≈ 36.4 µM) | 9.7 µg/mL (≈ 24.3 µM) | 13.0 µg/mL (≈ 32.6 µM)
3 | C/C(=C\COc1ccc2ccc(=O)oc2c1)CC/C=C(\C)CCC(O)C(C)(C)O (stereo not drawn) [Compound 2, karatavicinol] | 5.6 µg/mL (≈ 14 µM) | 5.7 µg/mL (≈ 14.2 µM) | 11.6 µg/mL (≈ 29 µM) | 7.0 µg/mL (≈ 17.5 µM) | 7.5 µg/mL (≈ 18.7 µM)
4 | CC(C)=CCC/C(C)=C/CC/C(C)=C/COc1ccc2ccc(=O)oc2c1 [Compound 3, umbelliprenin] | 8.9 µg/mL (≈ 24.3 µM) | 6.7 µg/mL (≈ 18.3 µM) | 9.4 µg/mL (≈ 25.6 µM) | 4.1 µg/mL (≈ 11.2 µM) | 5.3 µg/mL (≈ 14.5 µM)
5 | C=C1CC[C@@H](O)C(C)(C)C1CC/C(C)=C/COc1ccc2ccc(=O)oc2c1 (stereo partly drawn) [Compound 4, farnesiferol B] | 7.2 µg/mL (≈ 18.8 µM) | 7.1 µg/mL (≈ 18.6 µM) | 10.0 µg/mL (≈ 26.1 µM) | 4.3 µg/mL (≈ 11.2 µM) | 7.1 µg/mL (≈ 18.6 µM)
6 | C/C(=C\COc1ccc2ccc(=O)oc2c1)CC[C@@H]1C(C)(C)[C@H]2CC[C@]1(C)O2 [Compound 5, farnesiferol C] | 4.2 µg/mL (≈ 11 µM) | 3.9 µg/mL (≈ 10.2 µM) | 7.2 µg/mL (≈ 18.8 µM) | 4.3 µg/mL (≈ 11.2 µM) | 5.4 µg/mL (≈ 14.1 µM)
